Source: ChEMBL document CHEMBL4627395, “Cytotoxic Heptaketides from the Endolichenic Fungus Ulospora bilgramii” (J Nat Prod, 2020)
Blank lines part the entries; values can stand above or below the compound they belong to. Activity calls are given as the source filed them. No cut-off for these calls is given here.

Legend:
MCF7 = assay: Cytotoxicity against human MCF7 cells incubated for 48 hrs by MTT assay; assay type: functional, cell-based; details: MCF7, 48 h
A549 [1] = assay: Cytotoxicity against human A549 cells incubated for 48 hrs by MTT assay; assay type: functional, cell-based; details: A549, 48 h
KB = assay: Cytotoxicity against human KB cells incubated for 48 hrs by MTT assay; assay type: functional, cell-based
A549 [2] = assay: Induction of cell cycle arrest in human A549 cells assessed as accumulation at G0/G1 phase at 5 uM incubated for 24 hrs by flow cytometry (reference value: 55.79%); assay type: functional
A549 [3] = assay: Induction of cell cycle arrest in human A549 cells assessed as accumulation at S phase at 5 uM incubated for 24 hrs by flow cytometry (reference value: 33.65%); assay type: functional
A549 [4] = assay: Induction of cell cycle arrest in human A549 cells assessed as accumulation at G0/G1 phase at 2.5 uM incubated for 24 hrs by flow cytometry (reference value: 55.79%); assay type: functional
A549 [5] = assay: Induction of apoptosis in human A549 cells after 24 hrs by Annexin-V-FITC/propidium iodide staining based flow cytometric method; assay type: functional, cell-based
A549 [6] = assay: induction of morphological changes in human A549 cells assessed as cell shrinkage at 1.25 to 5 uM incubated for 24 hrs by DAPI-staining based microscopic method; assay type: functional
A549 [7] = assay: Induction of DNA damage in human A549 cells assessed as gammaH2AX accumulation incubated for 24 hrs by DAPI staining based Immunofluorescence method; assay type: functional, cell-based
A549 [8] = assay: Induction of apoptosis in human A549 cells assessed as necrotic cells at 5 uM after 24 hrs by Annexin-V-FITC/propidium iodide staining based flow cytometric method (reference value: 1.12%); assay type: functional
A549 [9] = assay: Induction of cell cycle arrest in human A549 cells assessed as accumulation at G2/M phase at 13.6 uM incubated for 24 hrs by flow cytometry (reference value: 10.38%); assay type: functional
A549 [10] = assay: Induction of apoptosis in human A549 cells assessed as necrotic cells at 2.5 uM after 24 hrs by Annexin-V-FITC/propidium iodide staining based flow cytometric method (reference value: 1.12%); assay type: functional
A549 [11] = assay: Induction of apoptosis in human A549 cells assessed as necrotic cells at 13.6 uM after 24 hrs by Annexin-V-FITC/propidium iodide staining based flow cytometric method (reference value: 1.12%); assay type: functional
A549 [12] = assay: Induction of apoptosis in human A549 cells assessed as early apoptotic cells at 5 uM after 24 hrs by Annexin-V-FITC/propidium iodide staining based flow cytometric method (reference value: 0.56%); assay type: functional
A549 [13] = assay: Induction of cell cycle arrest in human A549 cells assessed as accumulation at S phase at 1.25 uM incubated for 24 hrs by flow cytometry (reference value: 33.65%); assay type: functional
A549 [14] = assay: Induction of cell cycle arrest in human A549 cells assessed as accumulation at G0/G1 phase at 1.25 uM incubated for 24 hrs by flow cytometry (reference value: 55.79%); assay type: functional
A549 [15] = assay: Induction of apoptosis in human A549 cells assessed as necrotic cells at 1.25 uM after 24 hrs by Annexin-V-FITC/propidium iodide staining based flow cytometric method (reference value: 1.12%); assay type: functional
A549 [16] = assay: Induction of ROS generation in human A549 cells assessed as increase in fluorescence intensity at 5 uM incubated for 24 hrs by DCFH-DA staining-based flow cytometric analysis relative to control; assay type: functional
A549 [17] = assay: Induction of apoptosis in human A549 cells assessed as late apoptotic cells at 2.5 uM after 24 hrs by Annexin-V-FITC/propidium iodide staining based flow cytometric method (reference value: 1.40%); assay type: functional
A549 [18] = assay: Induction of cell cycle arrest in human A549 cells assessed as accumulation at G0/G1 phase at 13.6 uM incubated for 24 hrs by flow cytometry (reference value: 55.79%); assay type: functional
A549 [19] = assay: Induction of cell cycle arrest in human A549 cells assessed as accumulation at G2/M phase at 1.25 uM incubated for 24 hrs by flow cytometry (reference value: 10.38%); assay type: functional
A549 [20] = assay: Induction of cell cycle arrest in human A549 cells assessed as accumulation at S phase at 2.5 uM incubated for 24 hrs by flow cytometry (reference value: 33.65%); assay type: functional
A549 [21] = assay: Induction of apoptosis in human A549 cells assessed as early apoptotic cells at 13.6 uM after 24 hrs by Annexin-V-FITC/propidium iodide staining based flow cytometric method (reference value: 0.56%); assay type: functional
[22] = biological target: DNA topoisomerase 2-alpha (Homo sapiens) (UniProt P11388); assay: Inhibition of human topoisomerase-2alpha expressed in baculovirus infected insect cells assessed as reduction in pBR322 DNA relaxation measured after 30 mins by ethidium bromide staining based agarose gel electrophoresis method relative to control
DNA topoisomerase 2-alpha (Homo sapiens), sequence (P11388 whole entry): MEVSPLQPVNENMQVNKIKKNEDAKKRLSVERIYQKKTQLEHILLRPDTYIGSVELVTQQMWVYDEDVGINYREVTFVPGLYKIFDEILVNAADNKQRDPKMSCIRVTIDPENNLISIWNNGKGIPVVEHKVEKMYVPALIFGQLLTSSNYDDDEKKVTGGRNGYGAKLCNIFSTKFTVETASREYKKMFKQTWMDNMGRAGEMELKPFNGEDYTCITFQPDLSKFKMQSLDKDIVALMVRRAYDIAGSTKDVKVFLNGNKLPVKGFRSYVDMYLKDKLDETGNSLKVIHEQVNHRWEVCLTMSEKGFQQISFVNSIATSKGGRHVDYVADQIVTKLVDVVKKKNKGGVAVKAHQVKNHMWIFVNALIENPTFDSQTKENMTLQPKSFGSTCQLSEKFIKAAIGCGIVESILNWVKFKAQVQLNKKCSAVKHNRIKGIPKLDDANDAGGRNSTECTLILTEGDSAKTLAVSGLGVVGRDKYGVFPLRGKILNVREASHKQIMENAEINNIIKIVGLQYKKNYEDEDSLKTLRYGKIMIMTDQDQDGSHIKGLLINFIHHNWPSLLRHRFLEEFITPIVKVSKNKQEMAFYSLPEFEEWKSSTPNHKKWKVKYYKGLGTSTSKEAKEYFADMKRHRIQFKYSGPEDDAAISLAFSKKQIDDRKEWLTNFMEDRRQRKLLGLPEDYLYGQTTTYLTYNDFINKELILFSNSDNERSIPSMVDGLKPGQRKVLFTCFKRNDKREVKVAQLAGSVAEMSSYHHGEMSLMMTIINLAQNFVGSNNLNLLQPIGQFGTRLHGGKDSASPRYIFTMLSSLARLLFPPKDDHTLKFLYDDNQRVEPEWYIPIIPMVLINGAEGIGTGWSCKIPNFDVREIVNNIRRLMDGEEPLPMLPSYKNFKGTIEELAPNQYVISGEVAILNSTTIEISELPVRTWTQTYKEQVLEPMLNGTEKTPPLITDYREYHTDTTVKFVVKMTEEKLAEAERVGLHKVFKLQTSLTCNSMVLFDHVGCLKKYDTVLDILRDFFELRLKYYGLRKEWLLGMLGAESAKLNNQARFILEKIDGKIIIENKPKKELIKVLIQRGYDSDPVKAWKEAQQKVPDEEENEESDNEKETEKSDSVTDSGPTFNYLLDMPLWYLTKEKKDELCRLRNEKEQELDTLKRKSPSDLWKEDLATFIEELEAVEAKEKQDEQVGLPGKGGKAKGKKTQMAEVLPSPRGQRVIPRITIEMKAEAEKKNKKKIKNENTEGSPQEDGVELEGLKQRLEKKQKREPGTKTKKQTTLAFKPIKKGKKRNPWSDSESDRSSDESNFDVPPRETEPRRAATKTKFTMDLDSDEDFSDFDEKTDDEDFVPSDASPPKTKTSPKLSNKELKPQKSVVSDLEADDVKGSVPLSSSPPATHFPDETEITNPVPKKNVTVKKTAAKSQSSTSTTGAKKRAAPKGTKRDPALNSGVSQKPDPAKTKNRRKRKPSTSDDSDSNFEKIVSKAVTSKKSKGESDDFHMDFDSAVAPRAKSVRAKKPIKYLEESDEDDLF

A549 [23] = assay: Induction of apoptosis in human A549 cells assessed as early apoptotic cells at 1.25 uM after 24 hrs by Annexin-V-FITC/propidium iodide staining based flow cytometric method (reference value: 0.56%); assay type: functional
A549 [24] = assay: Induction of apoptosis in human A549 cells assessed as late apoptotic cells at 13.6 uM after 24 hrs by Annexin-V-FITC/propidium iodide staining based flow cytometric method (reference value: 1.40%); assay type: functional
A549 [25] = assay: Induction of cell cycle arrest in human A549 cells assessed as accumulation at S phase at 13.6 uM incubated for 24 hrs by flow cytometry (reference value: 33.65%); assay type: functional
A549 [26] = assay: Induction of cell cycle arrest in human A549 cells assessed as accumulation at G0/G1 phase incubated for 24 hrs by flow cytometry; assay type: functional, cell-based
A549 [27] = assay: Induction of apoptosis in human A549 cells assessed as late apoptotic cells at 1.25 uM after 24 hrs by Annexin-V-FITC/propidium iodide staining based flow cytometric method (reference value: 1.40%); assay type: functional
A549 [28] = assay: Induction of ROS generation in human A549 cells incubated for 24 hrs by DCFH-DA staining-based flow cytometric analysis relative to control; assay type: functional, cell-based
A549 [29] = assay: Induction of apoptosis in human A549 cells assessed as late apoptotic cells at 5 uM after 24 hrs by Annexin-V-FITC/propidium iodide staining based flow cytometric method (reference value: 1.40%); assay type: functional
A549 [30] = assay: Induction of cell cycle arrest in human A549 cells assessed as accumulation at G2/M phase at 2.5 uM incubated for 24 hrs by flow cytometry (reference value: 10.38%); assay type: functional
A549 [31] = assay: Induction of apoptosis in human A549 cells assessed as early apoptotic cells at 2.5 uM after 24 hrs by Annexin-V-FITC/propidium iodide staining based flow cytometric method (reference value: 0.56%); assay type: functional
A549 [32] = assay: Induction of cell cycle arrest in human A549 cells assessed as accumulation at G2/M phase at 5 uM incubated for 24 hrs by flow cytometry (reference value: 10.38%); assay type: functional
A549 [33] = assay: induction of morphological changes in human A549 cells assessed as appearance of apoptotic bodies at 1.25 to 5 uM incubated for 24 hrs by DAPI-staining based microscopic method; assay type: functional, cell-based

SMILES: COc1cc(O)c2c(c1)C(=O)C1=C(COC(C)(O)C1)C2=O (configuration not stated)
- IC50 (MCF7): > 40 µM
- IC50 (A549 [1]): > 40 µM
- IC50 (KB): > 40 µM

SMILES: COc1cc(O)c2c(c1)C(=O)c1cc(C)ncc1C2=O
- IC50 (MCF7): > 40 µM
- IC50 (A549 [1]): > 40 µM
- IC50 (KB): > 40 µM

SMILES: COc1cc(O)c2c(c1)[C@@H]1O[C@]3(C)C[C@@H]1[C@@H](CO3)C2=O
- IC50 (MCF7): > 40 µM
- IC50 (A549 [1]): > 40 µM
- IC50 (KB): > 40 µM

SMILES: COc1cc(C)c(Cc2c(C)cc(O)cc2OC)c(O)c1
- IC50 (MCF7): > 40 µM
- IC50 (A549 [1]): > 40 µM
- IC50 (KB): > 40 µM

SMILES: COc1cc(O)c2c(c1)[C@H](O)[C@@H]1C[C@H](C)OC[C@H]1C2=O
- IC50 (MCF7): > 40 µM
- IC50 (A549 [1]): > 40 µM
- IC50 (KB): > 40 µM

SMILES: COc1cc(O)c2c(c1)C(=O)C1=C(COC(C)=C1)C2=O
- IC50 (MCF7): > 40 µM
- IC50 (A549 [1]): > 40 µM
- IC50 (KB): > 40 µM

SMILES: COC1=CC(=O)[C@H](O)[C@H](C)C12Oc1cccc3cccc(c13)O2
- IC50 (MCF7): > 40 µM
- IC50 (A549 [1]): > 40 µM
- IC50 (KB): > 40 µM

SMILES: COc1cc(O)c2c(c1)C(=O)C1=C(C2=O)C(OC)OC(C)=C1 (configuration not stated) [ASCOMYCONE A]
- IC50 (MCF7): > 40 µM
- IC50 (A549 [1]): > 40 µM
- IC50 (KB): > 40 µM

- inhibition [22]: Active
SMILES: COc1cc(O)c2c(c1)C(=O)C1=C(C2=O)[C@H](OC[C@@H]2C(=O)CC[C@H]2C)OC(C)=C1
- Activity (A549 [2]): 69.15%
- Activity (A549 [3]): 29.74%
- Activity (A549 [4]): 66.37%
- Activity (A549 [5]): Dose-dependent effect
- Activity (A549 [6]): Active
- Activity (A549 [7]): Dose-dependent effect
- Activity (A549 [8]): 7.75%
- Activity (A549 [9]): 44.81%
- Activity (A549 [10]): 1.3%
- Activity (A549 [11]): 2.15%
- Activity (A549 [12]): 1.8%
- Activity (A549 [13]): 33.31%
- Activity (A549 [14]): 59.51%
- Activity (A549 [15]): 0.73%
- fold change (FC) (A549 [16]): 5
- Activity (A549 [17]): 2.69%
- Activity (A549 [18]): 30.93%
- Activity (A549 [19]): 7.18%
- Activity (A549 [20]): 30.07%
- Activity (A549 [21]): 6.79%
- Activity (A549 [23]): 0.98%
- Activity (A549 [24]): 5.02%
- Activity (A549 [25]): 24.26%
- Activity (A549 [26]): Dose-dependent effect
- Activity (A549 [27]): 1.14%
- Activity (A549 [28]): Dose-dependent effect
- IC50 (MCF7): 1.3 µM
- Activity (A549 [29]): 10.75%
- IC50 (A549 [1]): 1.3 µM
- IC50 (KB): 3 µM
- Activity (A549 [30]): 3.56%
- Activity (A549 [31]): 0.87%
- Activity (A549 [32]): 1.11%
- Activity (A549 [33]): Active

SMILES: COc1cc(C)cc(O)c1
- IC50 (MCF7): > 40 µM
- IC50 (A549 [1]): > 40 µM
- IC50 (KB): > 40 µM
